Measured values taken from US8314129B2, “Optical isomers of an iloperidone metabolite” (Novartis AG, priority 2004, dated 2012).

Experiments:
[1] = metabolite formation in humans following administration of iloperidone; format: in vivo, human
Description: P-88-8991 consists of a mixture of two enantiomers which have never been disclosed in the literature.

[2] = biological target: T1, adrenergic α2c receptors (Homo sapiens, UniProt P18825); test: radioligand binding, adrenergic α2c receptor; conditions: standard radioligand binding; human recombinant receptors and native rat brain receptors; read-out: affinity for adrenergic α2c receptors (pKi) (converted)
T1 sequence (P18825 1-462): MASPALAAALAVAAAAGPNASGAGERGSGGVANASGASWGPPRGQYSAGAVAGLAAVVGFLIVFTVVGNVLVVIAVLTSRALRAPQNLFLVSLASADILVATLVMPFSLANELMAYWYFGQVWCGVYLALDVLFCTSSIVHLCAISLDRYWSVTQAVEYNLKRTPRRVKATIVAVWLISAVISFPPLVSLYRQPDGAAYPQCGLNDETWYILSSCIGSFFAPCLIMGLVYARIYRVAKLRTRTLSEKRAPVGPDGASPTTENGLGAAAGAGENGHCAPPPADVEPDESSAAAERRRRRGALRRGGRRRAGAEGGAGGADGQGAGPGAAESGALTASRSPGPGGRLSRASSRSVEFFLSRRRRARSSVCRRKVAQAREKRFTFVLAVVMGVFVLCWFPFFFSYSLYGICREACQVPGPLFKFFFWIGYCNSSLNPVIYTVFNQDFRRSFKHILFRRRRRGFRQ
Experimental: (§1) Receptor affinity is determined with standard radioligand binding techniques, using human recombinant receptors and native rat brain receptors. Blockade of dopamine D2 and noradrenergic α2c receptors is tested in cell-lines using luciferase reporter gene assays based on 2nd messenger responses.

[3] = biological target: 5HT6 receptors (Homo sapiens, UniProt P50406); test: radioligand binding, 5HT6 receptor; conditions: standard radioligand binding; human recombinant receptors and native rat brain receptors; read-out: affinity for 5HT6 receptors (pKi) (converted)
Sequence of 5HT6 receptors (P50406 whole entry): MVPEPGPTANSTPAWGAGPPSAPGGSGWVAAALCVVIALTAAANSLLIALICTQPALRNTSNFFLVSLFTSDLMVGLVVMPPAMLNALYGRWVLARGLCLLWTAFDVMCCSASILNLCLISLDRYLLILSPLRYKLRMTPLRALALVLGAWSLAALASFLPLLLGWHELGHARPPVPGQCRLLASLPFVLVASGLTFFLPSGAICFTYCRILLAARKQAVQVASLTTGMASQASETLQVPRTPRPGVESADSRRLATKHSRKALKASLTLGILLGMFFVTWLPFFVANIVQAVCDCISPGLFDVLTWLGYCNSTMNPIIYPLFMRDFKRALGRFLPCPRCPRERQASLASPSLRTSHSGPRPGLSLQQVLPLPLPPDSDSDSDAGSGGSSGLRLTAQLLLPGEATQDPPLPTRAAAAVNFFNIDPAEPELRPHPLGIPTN
Experimental: as §1

[4] = biological target: 5HT2A receptors (Homo sapiens, UniProt P28223); test: radioligand binding, 5HT2A receptor; conditions: standard radioligand binding; human recombinant receptors and native rat brain receptors; read-out: affinity for 5HT2A receptors (pKi) (converted)
Sequence of 5HT2A receptors (P28223 whole entry): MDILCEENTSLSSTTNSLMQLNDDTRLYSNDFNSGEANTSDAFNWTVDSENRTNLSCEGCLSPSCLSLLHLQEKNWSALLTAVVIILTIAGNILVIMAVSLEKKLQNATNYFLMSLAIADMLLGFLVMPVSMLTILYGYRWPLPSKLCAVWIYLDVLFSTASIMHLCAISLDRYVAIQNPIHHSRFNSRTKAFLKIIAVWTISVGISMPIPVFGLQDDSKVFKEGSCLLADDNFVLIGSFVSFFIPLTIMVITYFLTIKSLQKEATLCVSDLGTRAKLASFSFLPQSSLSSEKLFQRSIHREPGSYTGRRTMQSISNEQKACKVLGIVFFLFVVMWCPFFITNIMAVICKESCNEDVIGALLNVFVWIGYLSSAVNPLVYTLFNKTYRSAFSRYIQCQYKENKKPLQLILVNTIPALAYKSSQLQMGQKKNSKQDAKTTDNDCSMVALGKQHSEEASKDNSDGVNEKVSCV
Experimental: as §1

[5] = biological target: adrenergic α1 receptors; test: radioligand binding, adrenergic α1 receptor; conditions: standard radioligand binding; human recombinant receptors and native rat brain receptors
Experimental: as §1

[6] = higher than parent drug iloperidone; cited from earlier work

| Ki [2] | Ki [3] | Ki [4] | affinity for adrenergic α1 receptors (pKi) [5] | SMILES | stereospecific formation of P-88-8991 enantiomer [1] | plasma levels in human relative to the parent drug [6] |
| --- | --- | --- | --- | --- | --- | --- |
|  |  |  |  | COc1cc(C(C)=O)ccc1OCCCN1CCC(c2noc3cc(F)ccc23)CC1 [iloperidone, 1-(4-{3-[4-(6-fluoro-benzo[d]isoxazol-3-yl)piperidin-1-yl]propoxy}-3-methoxy-phenyl)-ethanone] | humans produce only one enantiomer stereospecifically |  |
| 20 nM | 15.8 nM | 1.26 nM | 9.2 | COc1cc([C@@H](C)O)ccc1OCCCN1CCC(c2noc3cc(F)ccc23)CC1 [formula II, (R)-1-(4-{3-[4-(6-fluoro-benzo[d]isoxazol-3-yl)-piperidin-1-yl]propoxy}-3-methoxy-phenyl}-ethanol] |  |  |
| 15.8 nM | 7.94 nM | 1.26 nM | 8.9 | COc1cc([C@H](C)O)ccc1OCCCN1CCC(c2noc3cc(F)ccc23)CC1 [formula I, (S)-1-(4-{3-[4-(6-fluoro-benzo[d]isoxazol-3-yl)-piperidin-1-yl]-propoxy}-3-methoxy-phenyl)-ethanol] |  |  |
|  |  |  |  | COc1cc(C(C)O)ccc1OCCCN1CCC(c2noc3cc(F)ccc23)CC1 (racemic) [P-88-8991] |  | about 1.5 fold |
